Measured values reported in patent publication US20260250322A1, “NEW PEPTIDES AS SELECTIVE IL-23 RECEPTOR INHIBITORS” (SANOFI, priority 2023, published 2026).
Numbered stars: 1 amine (or outer) side, 2 acyl side, 3 side chain; on linkers, the order of the positions; unused ones are H or OH. Bridge positions count the residues as written; N and C are the ends. Square brackets hold non-standard residues; d marks the D form. Peptide text beside a SMILES is read from it. Tyr(Me) = Yme = 4-methoxy-L-phenylalanine (O-methyl-tyrosine), COc1ccc(C[C@H](N[*:1])C(=O)[*:2])cc1; 1Nal = N[C@@H](Cc1cccc2ccccc12)C(=O)O; 2Nal = N[C@@H](Cc1ccc2ccccc2c1)C(=O)O; AEF = NCCOc1ccc(C[C@H](N)C(=O)O)cc1; Orn = NCCC[C@H](N)C(=O)O; Thp = NC1(C(=O)O)CCOCC1; Aib = CC(C)(N)C(=O)O

T1: IL-23 receptor on the surface of HEK-Blue IL-23 cells (UniProt Q5VWK5 24-629, limits assumed)
T1 sequence (looked up): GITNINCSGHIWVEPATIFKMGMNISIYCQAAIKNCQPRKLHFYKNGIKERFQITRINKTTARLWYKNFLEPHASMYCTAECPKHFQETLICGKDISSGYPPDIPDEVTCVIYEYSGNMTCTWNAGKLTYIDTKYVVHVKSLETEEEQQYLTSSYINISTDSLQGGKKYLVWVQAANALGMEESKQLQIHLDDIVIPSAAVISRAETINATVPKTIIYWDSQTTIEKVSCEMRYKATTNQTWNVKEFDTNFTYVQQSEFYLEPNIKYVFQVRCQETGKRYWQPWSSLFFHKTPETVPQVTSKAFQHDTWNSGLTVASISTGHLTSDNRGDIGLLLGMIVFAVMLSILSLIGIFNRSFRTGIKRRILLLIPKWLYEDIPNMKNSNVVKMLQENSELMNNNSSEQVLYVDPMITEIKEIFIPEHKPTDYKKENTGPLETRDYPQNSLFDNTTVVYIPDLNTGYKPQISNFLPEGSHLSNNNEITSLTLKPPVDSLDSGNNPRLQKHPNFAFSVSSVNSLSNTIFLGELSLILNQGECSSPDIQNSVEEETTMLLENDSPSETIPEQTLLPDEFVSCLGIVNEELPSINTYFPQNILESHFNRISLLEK


Tests used:
[1] = system: IL-23 induced STAT3 signaling; assay: Inhibition of IL-23 induced STAT3 signaling in HEK-Blue IL-23 cells (SEAP reporter); assay type: cell-based; conditions: human IL-23 0.25 ng/ml, read-out: Inhibition of IL-23 induced pSTAT3 (IC50 nM)
Source text: HEK-Blue™ IL-23 cells (Invivogen) are designed for the detection of bioactive human (hIL-23) and murine IL-23 (mIL-23) by monitoring the activation of the STAT3 pathway. Binding of IL-23 to its receptor on the surface of HEK-Blue™ IL-23 cells triggers a signaling cascade leading to the activation of STAT3 and the subsequent production of secreted embryonic alkaline phosphatase (SEAP). This can be readily assessed using QUANTI-Blue™ Solution, a SEAP detection reagent.
HEK-Blue™ IL-23 cells were cultured as described by Invivogen.
On the first day of assay 10 μL of the HEK-Blue IL-23 cell suspension (final concentration: 10,000 cells/well) and 10 μl of serially diluted compound solutions were dispensed into a 384-well assay plate. After pre-incubation of the reaction mixtures at 37° C./5% CO2/95% humidity for 60 minutes, 10 μl of the humanIL-23 cytokine (final concentration: 0.25 ng/ml) was added to each well for the STAT3 signaling activation. The plate was incubated overnight at 37° C./5% CO2/95% humidity.
On the second day 20 μl per well of Quanti-Blue detection solution (prepared according to the manufacture instruction) was dispensed into a new 384-well plate and followed by the transfer of 5 μl supernatant of the overnight incubated cell/sample mixtures. After incubation of 45 min at room temperature signals were measured with PHERAstar (BMG) at OD 620-655 nm.
Dose response data were fitted with XLfit.

[2] = target: T1, IL-23 receptor on the surface of …; assay: cell-based or functional assay

IC50 [1] [nM] | Inhibition of IL-23 induced pSTAT3 (IC50 nM) [2] [nM] | Molecule
6050 | – | COc1ccc(C[C@@H]2NC(=O)[C@H](CCCNC(=N)N)NC(=O)[C@H](CCC(N)=O)NC(=O)[C@H](Cc3c[nH]c4ccccc34)NC(=O)[C@H]([C@@H](C)O)NC(=O)[C@H](CC(N)=O)NC(=O)[C@H](NC(C)=O)CCCCNC(=O)C[C@@H](C(=O)N[C@@H](CC(N)=O)C(=O)N[C@@H](CC(N)=O)C(N)=O)NC(=O)[C@H](CCC(N)=O)NC(=O)[C@H](Cc3ccc4ccccc4c3)NC2=O)cc1 [compound 30] (Ac-[dK]NTWQRY(Me)[2Nal]QDNN-NH2; lactam 1-10)
1570 | – | CC(=O)N[C@H]1CCCNC(=O)CC[C@@H](C(=O)N[C@@H](CC(N)=O)C(=O)N[C@@H](CC(N)=O)C(N)=O)NC(=O)C(C)(C)NC(=O)[C@H](Cc2ccc3ccccc3c2)NC(=O)[C@H](Cc2ccc(OCCN)cc2)NC(=O)[C@H](CCCNC(=N)N)NC(=O)[C@H](CCC(N)=O)NC(=O)[C@H](Cc2c[nH]c3ccccc23)NC(=O)[C@H]([C@@H](C)O)NC(=O)[C@H](CC(N)=O)NC1=O [compound 38] (Ac-[Orn]NTWQR[AEF][2Nal][Aib]ENN-NH2; lactam 1-10)
– | 850 | Ac-[dK]NTWQL[Tyr(Me)][1Nal][Aib]DNN-NH2 (lactam 1-10; SMILES COc1ccc(C[C@@H]2NC(=O)[C@H](CC(C)C)NC(=O)[C@H](CCC(N)=O)NC(=O)[C@H](Cc3c[nH]c4ccccc34)NC(=O)[C@H]([C@@H](C)O)NC(=O)[C@H](CC(N)=O)NC(=O)[C@H](NC(C)=O)CCCCNC(=O)C[C@@H](C(=O)N[C@@H](CC(N)=O)C(=O)N[C@@H](CC(N)=O)C(N)=O)NC(=O)C(C)(C)NC(=O)[C@H](Cc3cccc4ccccc34)NC2=O)cc1) [peptide compound SEQ ID NO: 7]
– | 432 | Ac-[dK]NTWQR[Tyr(Me)][2Nal][Aib]ENN-NH2 (lactam 1-10; SMILES COc1ccc(C[C@@H]2NC(=O)[C@H](CCCNC(=N)N)NC(=O)[C@H](CCC(N)=O)NC(=O)[C@H](Cc3c[nH]c4ccccc34)NC(=O)[C@H]([C@@H](C)O)NC(=O)[C@H](CC(N)=O)NC(=O)[C@H](NC(C)=O)CCCCNC(=O)CC[C@@H](C(=O)N[C@@H](CC(N)=O)C(=O)N[C@@H](CC(N)=O)C(N)=O)NC(=O)C(C)(C)NC(=O)[C@H](Cc3ccc4ccccc4c3)NC2=O)cc1) [peptide compound SEQ ID NO: 5]
– | 366 | Ac-DNTWQR[Tyr(Me)][2Nal][Aib][Orn]NN-NH2 (lactam 1-10; SMILES COc1ccc(C[C@@H]2NC(=O)[C@H](CCCNC(=N)N)NC(=O)[C@H](CCC(N)=O)NC(=O)[C@H](Cc3c[nH]c4ccccc34)NC(=O)[C@H]([C@@H](C)O)NC(=O)[C@H](CC(N)=O)NC(=O)[C@@H](NC(C)=O)CC(=O)NCCC[C@@H](C(=O)N[C@@H](CC(N)=O)C(=O)N[C@@H](CC(N)=O)C(N)=O)NC(=O)C(C)(C)NC(=O)[C@H](Cc3ccc4ccccc4c3)NC2=O)cc1) [peptide compound SEQ ID NO: 6]
– | 221 | Ac-KNTWQR[Tyr(Me)][2Nal][Thp]DNN-NH2 (lactam 1-10; SMILES COc1ccc(C[C@@H]2NC(=O)[C@H](CCCNC(=N)N)NC(=O)[C@H](CCC(N)=O)NC(=O)[C@H](Cc3c[nH]c4ccccc34)NC(=O)[C@H]([C@@H](C)O)NC(=O)[C@H](CC(N)=O)NC(=O)[C@@H](NC(C)=O)CCCCNC(=O)C[C@@H](C(=O)N[C@@H](CC(N)=O)C(=O)N[C@@H](CC(N)=O)C(N)=O)NC(=O)C3(CCOCC3)NC(=O)[C@H](Cc3ccc4ccccc4c3)NC2=O)cc1) [peptide compound SEQ ID NO: 41]
– | 943 | Ac-[dK]NTWQA[Tyr(Me)][1Nal][Aib]DNN-NH2 (lactam 1-10; SMILES COc1ccc(C[C@@H]2NC(=O)[C@H](C)NC(=O)[C@H](CCC(N)=O)NC(=O)[C@H](Cc3c[nH]c4ccccc34)NC(=O)[C@H]([C@@H](C)O)NC(=O)[C@H](CC(N)=O)NC(=O)[C@H](NC(C)=O)CCCCNC(=O)C[C@@H](C(=O)N[C@@H](CC(N)=O)C(=O)N[C@@H](CC(N)=O)C(N)=O)NC(=O)C(C)(C)NC(=O)[C@H](Cc3cccc4ccccc34)NC2=O)cc1) [peptide compound SEQ ID NO: 8]

More lines, now with the values behind:

Molecule | IC50 [1] [nM] | Inhibition of IL-23 induced pSTAT3 (IC50 nM) [2] [nM]
COc1ccc(C[C@@H]2NC(=O)[C@H](CCCNC(=N)N)NC(=O)[C@H](CCC(N)=O)NC(=O)[C@H](Cc3c[nH]c4ccccc34)NC(=O)[C@H]([C@@H](C)O)NC(=O)[C@H](CC(N)=O)NC(=O)[C@H](NC(C)=O)CCCCNC(=O)C[C@@H](C(=O)N[C@@H](CC(N)=O)C(=O)N[C@@H](CC(N)=O)C(N)=O)NC(=O)[C@H](CCCCNC(C)=O)NC(=O)[C@H](Cc3ccc4ccccc4c3)NC2=O)cc1 [compound 28] (Ac-[dK]NTWQRY(Me)[2Nal]K(Ac)DNN-NH2; lactam 1-10) | 2210 | –
COc1ccc(C[C@@H]2NC(=O)[C@H](CCCNC(=N)N)NC(=O)[C@H](CCC(N)=O)NC(=O)[C@H](Cc3c[nH]c4ccccc34)NC(=O)[C@H]([C@@H](C)O)NC(=O)[C@H](CC(N)=O)NC(=O)[C@H](NC(C)=O)CCCCNC(=O)C[C@@H](C(=O)N[C@@H](CC(N)=O)C(N)=O)NC(=O)C(C)(C)NC(=O)[C@H](Cc3ccc4ccccc4c3)NC2=O)cc1 [compound 26] (Ac-[dK]NTWQRY(Me)[2Nal][Aib]DN-NH2; lactam 1-10) | 8110 | –
COc1ccc(C[C@@H]2NC(=O)[C@H](CCCNC(=N)N)NC(=O)[C@H](CCC(N)=O)NC(=O)[C@H](Cc3c[nH]c4ccccc34)NC(=O)[C@H]([C@@H](C)O)NC(=O)[C@H](CC(N)=O)NC(=O)[C@H](NC(C)=O)CCCCNC(=O)C[C@@H](C(=O)N[C@@H](CC(N)=O)C(=O)N[C@@H](CC(N)=O)C(N)=O)NC(=O)[C@H](CCC(N)=O)NC(=O)[C@H](Cc3cccc4ccccc34)NC2=O)cc1 [compound 19] (Ac-[dK]NTWQRY(Me)[1Nal]QDNN-NH2; lactam 1-10) | 9600 | –
COc1ccc(C[C@@H]2NC(=O)[C@H](CCCNC(=N)N)NC(=O)[C@H](CCC(N)=O)NC(=O)[C@H](Cc3c[nH]c4ccccc34)NC(=O)[C@H]([C@@H](C)O)NC(=O)[C@H](CC(N)=O)NC(=O)[C@H](NC(C)=O)CCCCNC(=O)C[C@@H](C(=O)N[C@@H](CC(N)=O)C(=O)N[C@@H](CC(N)=O)C(N)=O)NC(=O)[C@H](CCCCNC(C)=O)NC(=O)[C@H](Cc3cccc4ccccc34)NC2=O)cc1 [compound 17] (Ac-[dK]NTWQRY(Me)[1Nal]K(Ac)DNN-NH2; lactam 1-10) | 5650 | –
CC(=O)N[C@@H]1CCCCNC(=O)C[C@@H](C(=O)N[C@@H](CC(N)=O)C(=O)N[C@@H](CC(N)=O)C(N)=O)NC(=O)C(C)(C)NC(=O)[C@H](Cc2cccc3ccccc23)NC(=O)[C@H](Cc2ccc(O)cc2)NC(=O)[C@H](CCCNC(=N)N)NC(=O)[C@H](CCC(N)=O)NC(=O)[C@H](Cc2c[nH]c3ccccc23)NC(=O)[C@H]([C@@H](C)O)NC(=O)[C@H](CC(N)=O)NC1=O [compound 14] (Ac-[dK]NTWQRY[1Nal][Aib]DNN-NH2; lactam 1-10) | 1380 | –
COc1ccc(C[C@@H]2NC(=O)[C@H](CCCNC(=N)N)NC(=O)[C@H](CCC(N)=O)NC(=O)[C@H](Cc3c[nH]c4ccccc34)NC(=O)[C@H]([C@@H](C)O)NC(=O)[C@H](CC(N)=O)NC(=O)[C@H](NC(C)=O)CCCCNC(=O)CC[C@@H](C(=O)N[C@@H](CC(N)=O)C(=O)N[C@@H](CC(N)=O)C(N)=O)NC(=O)C(C)(C)NC(=O)[C@H](Cc3cccc4ccccc34)NC2=O)cc1 [compound 16] (Ac-[dK]NTWQRY(Me)[1Nal][Aib]ENN-NH2; lactam 1-10) | 8010 | –
